For test [1], the system named is BT-474 breast cancer cells. Description: SRB cell viability assay, BT-474. The test is classed as cell-based, human. To be noted: for IC50: Homo sapiens, BT-474, Breast (ER+ PR+). The protocol:
(§1) The sulforhodamine B (SRB) assay was employed to evaluate the effect of OSC inhibitor Ro 48-8071 on viability of breast cancer and normal mammary gland cells with slight modification of the original procedure established at NCI. Accordingly, the cells were seeded in 96-well plates in 100 μl culture medium and incubated overnight at 37° C. with 5% CO2. […] The surviving or adherent cells were fixed in situ by withdrawing the growth medium and adding 100 μl of PBS and 100 μl of 50% cold trichloroacetic acid and then incubating at 4° C. for 1 h. The surviving cells were washed with ice-water, dried at room temperature (RT), and then stained with 50 μl 4% SRB for 8 min at RT. Unbound dye was removed by washing 5 times with cold 1% acetic acid, and the plates were dried at RT. Bound stain was solubilized with 150 μl 10 mM Tris buffer, and absorbance of samples were measured at 520 nm with a SpecTRA MAX 190 microplate reader (Sunnyvale, Calif.). In these experiments on BT-474, T47-D, and AG11132A cell lines, six wells were used for each concentration, and each experiment was performed at least twice.
(§2) The effect of OSC inhibition was evaluated in additional cancer cell lines as well. Cancer cell lines may be purchased from ATCC (Manassas, Va.). The SRB assay has been employed for determination of the inhibitory effects of RO 48-8071 on growth of different cancer cells. Cells were seeded into 96-well plates and incubated overnight at 37° C. with 5% CO2. The culture medium was removed after 24 hours, and cells were washed with DMEM/F12 medium and then treated with various concentrations of RO 48-8071 in 5% FBS culture medium for 24 and 48 hours. Surviving or adherent cells were fixed in situ by withdrawing the growth medium, adding 100 μl PBS and 100 μl 50% trichloroacetic acid and then incubating at 4° C. for one hour. Cells were washed with ice-cold water, dried at room temperature (RT), and then stained with 50 μl 4% SRB for eight minutes at RT. Unbound dye was removed by washing with cold 1% acetic acid for five times, and plates were dried at RT. Bound stain was solubilized with 150 μl 10 mM Tris buffer and absorbance of samples was read at 520 nm with a SpecTRA MAX 190 microplate reader (Molecular Devices, Sunnyvale, Calif.). Six wells were used for each concentration, and each experiment was performed two to three times.
Effect of RO 48-8071 on breast cancer cell line BT-474 viability. […] The culture mediums employed 10% FBS DMEM/F12 for culture and 5% FBS DMEM/F12 for treatment.

Test [2] relates to T47-D breast cancer cells. Description: SRB cell viability assay, T47-D. The test is classed as cell-based. Particulars: for IC50: Homo sapiens, T47D, Breast (ER+ PR+). The protocol: as §1, §2
Effect of RO 48-8071 on breast cancer cell line T47-D viability. […] The culture mediums employed 10% FBS DMEM/F12 for culture and 5% FBS DMEM/F12 for treatment.

In test [3] the test system is HCC-1428 breast cancer cells. Kind of test: SRB cell viability assay, HCC-1428. Type of test: cell-based. To be noted: Homo sapiens, HCC1428, HCC-1428, Breast (ER+ PR+). The protocol:
as §2
Effect of RO 48-8071 on estrogen, progesterone, and HER-2/neu receptors positive breast cancer cell line HCC-1428 and ZR-75 viability. […]

Test [4] concerns MDA-231 breast cancer cells. Description: SRB cell viability assay, MDA-231. The test is classed as cell-based. Particulars: Homo sapiens, MDA-MB-231, MDA-231, Breast (triple negative). The protocol: as §2
(§3) Effect of RO 48-8071 on estrogen, progesterone, and HER-2/neu receptors negative breast cancer cell line MDA-231 and BT-20 viability. […]

Test [5] concerns BT-20 breast cancer cells. Kind of test: SRB cell viability assay, BT-20. Type of test: cell-based. To be noted: Homo sapiens, BT-20, Breast (triple negative). The protocol: as §2, §3
The next test concerns H69AR lung cancer cells. Description: SRB cell viability assay, H69AR. Particulars: Homo sapiens. Type of test: cell-based. The protocol: as §2
Effect of RO 48-8071 on lung cancer cell line H69AR viability. […] The culture mediums employed 20% FBS RPMI-1640 for culture and 10% FBS RPMI-1640 for treatment.

Test [6] deals with normal mammary AG11132A cells. Description: SRB cell viability assay, normal mammary cells. Type of test: cell-based. Particulars: 24 hours, FIG. 3. The protocol:
as §1

[7] abbreviates: 24 hours, read-out: IC50 (μM) (24 hours).
[8] abbreviates: 48 hours, read-out: IC50 (μM) (48 hours).

Structures can show the parent of a compound that is named as a salt. Where two headings read alike, the source gives them in different places.

The term IC50 denotes the midpoint of a concentration-inhibition curve.

`C=CCN(C)CCCCCCOc1ccc(C(=O)c2ccc(Br)cc2)c(F)c1` [Ro 48-8071, 4′-[6-(Allylmethylamino)hexyloxy]-4-bromo-2′-fluorobenzophenone fumarate]: the “effect on cell viability (SRB)” value is on record as “significantly inhibit the viability” in test [1] (BT-474, 24 hours, dose-dependent, FIG. 2A) and “significantly inhibit the viability” in test [2] (24 hours, dose-dependent, FIG. 2B). The half-maximal inhibitory concentration (IC50) worked out at 9.514 ± 0.05 µM in test [1] (setting [7]); 6.06 ± 0.233 µM in test [1] (setting [8]); 11.5 ± 0.358 µM in test [2] (setting [7]); 7.76 ± 0.293 µM in test [2] (setting [8]); 14.6 ± 0.417 µM in test [3] (setting [7]); 11.6 ± 0.336 µM in test [3] (setting [8]). Moreover, the IC50 in test [4] (setting [7]) stood at 15 ± 0.482 µM; in test [4] (setting [8]), 10.7 ± 0.276 µM; in test [5] (setting [7]), 15.8 ± 0.335 µM; in test [5] (setting [8]), 12.7 ± 0.18 µM; with H69AR lung cancer cells (setting [7]), 10.8 ± 0.609 µM; in the test on H69AR lung cancer cells (setting [8]), 8.11 ± 0.355 µM. The “inhibition of normal mammary cell viability compared with BT-474” value in test [6] is on record as “significantly less inhibition”.

These data come from US10143686B2, “Oxidosqualene cyclase as a protein target for anticancer therapeutics” (The Curators of the University of Missouri, priority 2010, dated 2018).
